Values quoted from earlier work, collected in patent publication US8916340B2, “Method for identifying and validating dominant T helper cell epitopes using an HLA-DM-assisted class II binding assay” (The John Hopkins University, priority 2006, dated 2014).

Target: HLA-DR1 (Homo sapiens, UniProt P01903+P01911)
Conditions: short-lived, DM-sensitive complex of peptide with HLA-DR1

HLA-DR1, sequence (P01903 26-216, other chains not shown): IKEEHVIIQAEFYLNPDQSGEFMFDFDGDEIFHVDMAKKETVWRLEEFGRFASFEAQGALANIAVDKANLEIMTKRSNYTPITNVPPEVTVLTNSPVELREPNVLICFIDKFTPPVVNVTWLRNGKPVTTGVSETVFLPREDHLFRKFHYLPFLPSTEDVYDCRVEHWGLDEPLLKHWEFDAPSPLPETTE

PKAVKQNTLKLAT [HAy308A]
t1/2 of complex with HLA-DR1: 34 min
